{
  "source": "patent CN112843052A",
  "about": "“新型表观遗传因子抑制剂2800z在制备抗肝癌药物增敏剂中的应用” (Hunan Normal University, priority 2021, dated 2021)",
  "key": {"[1]": {"test_system": "mouse liver cancer (subcutaneous HEPG2 cells in nude mice) [小鼠肝癌]", "experiment": "In vivo anti-liver-cancer experiment (体内抗肝癌实验), subcutaneous HEPG2 tumours in nude mice", "conditions": "14 days, i.p. three times per week for two weeks"}, "[2]": {"test_system": "HEPG2 cells [HEPG2细胞]", "conditions": "known IC50 value of the chemotherapeutic drug; cell line not printed in the clause; cited from earlier work"}, "[3]": {"test_system": "HEPG2 cells [HEPG2细胞]", "experiment": "In vitro cytotoxicity experiment (体外细胞毒性实验)", "assay_type": "cell-based", "conditions": "sorafenib 4 uM, 2800Z 60 uM, each alone or combined, 12, 24, 36 h"}, "[4]": {"conditions": "sorafenib 1 mg/kg, 2800Z 4 mg/kg, each alone or combined"}},
  "data": [
    {"compound": "CNC(=O)c1cc(Oc2ccc(NC(=O)Nc3ccc(Cl)c(C(F)(F)F)c3)cc2)ccn1", "note": "[索拉菲尼, Sorafenib]", "values": [
      {"measurement": "liver cancer volume compared with the untreated group (in words)", "setting": "[1]; sorafenib 1 mg/kg or 2800Z 4 mg/kg", "result": "与未给药组的结果相近"},
      {"measurement": "inhibition of mouse liver cancer (in words)", "setting": "[1]; [4]", "result": "抑制作用较弱"},
      {"measurement": "liver cancer (tumour) volume", "setting": "[1]; [4]", "result": "~1000", "unit": "mm3"},
      {"measurement": "IC50", "setting": "[2]", "result": 10, "unit": "µM"},
      {"measurement": "cytotoxicity (in words)", "setting": "[3]", "result": "细胞毒性较差"}
    ]}
  ]
}
